# Assay results from patent US20240307388A1, “FORMULATIONS FOR SUBSTITUTED 3-PYRROLIDINES, COMPOSITIONS CONTAINING, AND USES OF SAME” (LIPIDIO PHARMACEUTICALS, INC., priority 2016, published 2024).
# pEC50, pIC50: −log10 of the molar value.
# Legend:
# [1] = Analog solubility in TSAG3 gel vehicle (minus Carbopol); format: physicochemical; conditions: for Supernatant concentration Mean (N = 2-3) mg/g at RT after 4 days equilibration / Visual observation of sample after 4 days: TSAG3 gel vehicle minus 1% w/w Carbopol, 30 mg/g added, 20-23° C.
# Method: In order to assess the compatibility with the modified TSAG3 gel formulation, several analogs were saturated in the gel components at room temperature (20-23° C.). The method used was as follows: Each analog at the equivalent of 30 mg/g was added to 500 microliters of the gel vehicle (minus the 1% w/w Carbopol as this made the gel too viscous) and allowed to equilibrate using a gently rotating, rotisserie sample holder that was allowed to come to equilibrium over 4 days. The samples were visually observed, filtered and diluted for analysis via HPLC in a concentrations range predetermined to be in a linear range for analyte detection. It is believed that Carbopol makes little difference to the equilibrium solubility at the 1% w/w level but may possibly prevent precipitation of super−saturated solutions of drug initially over 24-48 hours which is a further reason for taking it out to better assess the drug solubility in the remainder of the formulation.
# [2] = system: mouse 3T3 L1 preadipocytes; test: Viability of mouse 3T3 L1 preadipocytes (Cell Titer Blue); format: cell-based; conditions: 10 μM
# Method: Viability of mouse 3T3 L1 preadipocytes (ATCC, Mannassas, VA) cultured in a 96-well plate following treatment with 10 μM Compound A and analogs Compounds B, D, E, G and H was assessed using Cell Titer Blue (Promega (Madison, WI)) according to manufacturer's instructions. […] To evaluate how the efficacy of Compound A in reducing lipid accumulation altered with substrate availability, studies were performed in differentiating mouse 3T3-L1 pre-adipocytes using charcoal stripped serum to reduce substrate concentration and also with added exogenous palmitate as the substrate. 3T3-L1 cells were plated at 6000 cells/cm^2 and cultured until confluence at 37° C. in a humidified incubator in 95% air/5% CO2. Two days post-confluence pre-adipocyte differentiation was initiated using adipocyte differentiation medium containing DMEM with high glucose, 10% fetal bovine serum, insulin (1.7 μM), dexamethasone (1 μM), IBMX (0.5 mM), PPARy agonist Rosiglitazone, (1 μM) with penicillin and streptomycin with 10 nM compound A or vehicle (0.1% DMSO). Seventy two hours following the initiation of differentiation, media was replaced with adipocyte maintenance media containing DMEM with high glucose and insulin (1.7 μM) with 10 nM compound A or vehicle (0.1% DMSO) (FIG. 12). Serum composed of 100% FCS or that containing 20, 40, 60, 80 or 100% charcoal stripped serum (cFCS). For experiments where sodium palmitate was added the serum comprised of a 90:10 ratio of FCS:cFCS with 5.0 or 50 μM palmitate/bovine-serum albumin (BSA) complex. Sodium palmitate was conjugated to BSA for use in experiments and was prepared by dissolving to 100 mM in 200 proof ethanol. The palmitate was diluted to 20 mM with D-PBS. The palmitate was then further diluted 1:1 with 30% fatty acid free albumin and incubated overnight at 37° C. The solution was sterile filtered with a 0.22 micron syringe filter prior to treating cells. The BSA control was prepared in the same manner, without the fatty acid. For the studies in which palmitate was added the media additionally contained palmitate/BSA complex at the same concentration as that used during the differentiation stage. Following a further forty-eight hours or ninety-six hours of incubation (Day 6 or Day 8 respectively) the media was removed, wells rinsed with PBS, and 200 μL PBS was added. Five microliters of AdipoRed™ reagent was added to each well, mixed, and allowed to stand at room temperature for 10 mins. Triglyceride was quantitated in a fluorimeter (i3 SpectraMax, Molecular Devices) using ? ex 530 nm and ? em 590 nm to determine relative fluorescent units (RFU). Percent inhibition of triglyceride accumulation in Compound A treated 3T3-L1 adipocytes compared to those treated with vehicle under each condition was calculated by using the formula; % Triglyceride Compound A treated adipocytes=100*(RFU Compound A treated adipocytes/RFU vehicle treated adipocytes).
# [3] = system: Mouse melanoma cells (B16F10); test: Cytotoxicity in mouse melanoma cells (CellTiter-Glo); format: cell-based; conditions: for effect of oleic acid on cytotoxicity: B16F10, oleic acid at 25 μM in the media
# Method: (§1) Mouse melanoma cells (B16F10) (American Type Culture Collection (ATCC), Manassas, VA) were cultured in Dulbecco's minimal essential media (DMEM) containing 10% fetal bovine serum, (Thermofisher, Waltham, MA). Cells were plated at a density of 5,000 cells per well into a 96-well plate and allowed to attach for 24 h in a 37° C. humidified incubator with a 5% CO2 atmosphere. Media was replaced with that containing test agents or vehicle (0.1% dimethylsulphoxide) and cells incubated for a further 48 h. Cell viability was assessed using CellTiter-Glo® (Promega).
# (§2) An oleate-bovine serum albumin (BSA) conjugate was prepared by dissolving sodium oleate to 100 mM in methanol. The oleate was diluted to 20 mM with PBS and further diluted 1:1 with 30% fatty acid free albumin and incubated overnight at 37° C. The solution was sterile filtered prior to treating cells. The BSA control was prepared in the same manner, without the fatty acid. […] Non-linear regression analysis was performed using GraphPad PRISM®.
# [4] = system: HSC-1 human squamous carcinoma cells; test: Cytotoxicity in human squamous carcinoma cells (CellTiter-Glo); format: cell-based; conditions: HSC-1, 72 h, 1% FBS, representative experiment, read-out: EC50 (cell viability)
# Method: The human skin squamous carcinoma line (HSC) (Japanese Collection of Research Bioresources Cell Bank (JCRB)) was cultured in Dulbecco's minimal essential media (DMEM) containing 20% fetal bovine serum (FBS), (Thermofisher, Waltham, MA). Cells were plated at a density of 5,000 cells per well into a 96-well plate and allowed to attach for 24 h in a 37° C. humidified incubator with a 5% CO2 atmosphere. Media was replaced with that containing test agents or vehicle (0.1% dimethylsulphoxide) in 1% FBS and cells incubated for a further 72 h. Cell viability was assessed using CellTiter-Glo® (Promega). Non-linear regression analysis was performed using GraphPad PRISM®.
# [5] = Cytotoxicity in mouse melanoma cells (CellTiter-Glo); format: cell-based; conditions: mouse, B16F10 mouse melanoma cells; B16F10, 48 h, representative experiment
# Method: as §1, §2
# [6] = system: Human subcutaneous pre-adipocytes; test: Lipid accumulation in differentiating primary human adipocytes (AdipoRed); format: cell-based; conditions: Adipocyte, 144 h, six days, read-out: IC50, reduction in lipid accumulation
# Method: Human subcutaneous pre-adipocytes (Zenbio (RTP, NC, U.S.A.)) were received pre-plated in white-walled 96-well plates. A schematic description of the protocol used for examining the effects of Compound A on lipid accumulation in differentiating human adipocytes is shown in FIG. 9. Upon arrival of cells (Day 1) 150 μL media in the wells was replaced with adipocyte differentiation media (Zenbio (RTP, NC, U.S.A.)). The following day media was replaced as described for Day 1. Media was subsequently replaced as described every two to three days. On Day 6, 150 μL of the adipocyte differentiation media was replaced with vehicle (0.1% DMSO), or the SCD1 inhibitors at the concentrations indicated. […] Cytotoxicity following incubation of adipocytes with Compound A was determined in separate wells, not used for Adipored™ staining, and was measured using CellTiter-Glo® (Promega (Madison, WI)) according to the manufacturer's instructions. Following a 10 min room temperature incubation the luminescence measured as relative light units (RLU) was determined in a luminescent plate reader. For adipocytes treated with concentrations of 1.2-100 nM Compound A for 6 days, cell viability as determined by RLU following CellTiter-Glo® remained greater than 75% of the value obtained with vehicle-treated adipocytes. […]
# [7] = system: B16F10 cells; test: Melanin production in B16F10 melanoma cells; format: cell-based, mouse; conditions: 10 nM, 48 h
# Method: B16F10 cells were plated at 150,000 cells per well into a 6-well plate and allowed to attach for 24 h in a 37° C. humidified incubator with a 5% CO2 atmosphere. Media was replaced with that containing test agents or vehicle (0.1% DMSO) and cells incubated for a further 48 h. Wells were washed once with PBS and cells removed by trypsinization and transferred to eppendorf tubes. Tubes were centrifuged at 1000 g for 10 minutes and the cell pellet resuspended in 0.5 mls PBS. Since compound A and analogs caused a reduction in cell viability the relative cell number per well was determined by taking an aliquot of the cell suspension in PBS and using CellTiter Glo® to determine the relative number of viable cells (Figure XX5). The PBS/cell suspension was centrifuged at 1000 g for 10 mins and the cell pellet resuspended in 1N NaOH/10% DMSO (v/v) and the tubes heated in a dry heating block at 80° C. with occasional vortexing to mix. In parallel a standard curve of melanin was prepared in 1N NaOH/10% DMSO using Sepia melanin (Sigma, St. Louis, MO) and standards also heated at 80° C. for 1 h. Samples and standards were centrifuged at 3000 g for 5 minutes and aliquots of the supernatant transferred to a 96-well plate for determination of melanin using Abs 475 nm. Melanin cellular content was interpolated from a standard curve and corrected based on the relative cell number in the sample.
SMILES,Supernatant concentration Mean (N = 2-3) mg/g at RT after 4 days equilibration [1],Visual observation of sample after 4 days [1],cell viability compared to vehicle treated cells [2],"reduction of cell viability ([3]; B16F10, 48 h, up to 100 nM)",solubility as % of Compound A solubility ([1]; TSAG3 gel vehicle minus Carbopol),pEC50 [4],effect of oleic acid on cytotoxicity [3],EC50 at 48 h [5],pIC50 [6],melanin content [7]
O=C(COc1ccc(CO)cc1)N1CC[C@H](Oc2ccccc2)C1 [Compound B],28.46 mg/g,Clear solution,No loss in cell viability,,,,,,,
O=C(COc1ccc(CO)cc1)N1CC[C@H](Oc2cccc(C(F)(F)F)c2)C1 [Compound D],28.35 mg/g,Clear solution,No loss in cell viability,,,,,,,
O=C(COc1ccc(CO)cc1)N1CC[C@H](Oc2ccc(C(F)(F)F)cc2)C1 [Compound E],23.18 mg/g,Visible precipitate,No loss in cell viability,did not reduce the viability,about 77%,,,,,
O=C(COc1ccc(CO)cc1)N1CC[C@H](Oc2ccccc2OC(F)(F)F)C1 [Compound G],28.78 mg/g,Clear solution,No loss in cell viability,,,8.04,prevented the cytotoxic effect,4.3 nM,7.62,increase in melanin
Cc1ccccc1O[C@H]1CCN(C(=O)COc2ccc(CO)cc2)C1 [Compound H],27.89 mg/g,Clear solution,No loss in cell viability,,,,prevented the cytotoxic effect,46 nM,7.25,
